pIC50: −log10 of the molar value. Calls of active or inactive are those of the source. The calls are words filed in the database; no cut-off is given here.
Experiments:
[1] = molecular target: NACHT, LRR and PYD domains-containing protein 3 (Mus musculus, UniProt Q8R4B8); assay: (§1) Inhibition of nigericin-induced NLRP3 inflammasome activation in C57BL/6 mouse bone marrow derived macrophages assessed as reduction in LPS-stimulated IL-1beta secretion incubated for 1 hr followed by nigericin addition measured after 1 hr by ELISA
[2] = molecular target: NACHT, LRR and PYD domains-containing protein 3 (Mus musculus) (UniProt Q8R4B8); assay: Inhibition of nigericin-induced NLRP3-dependent pyroptosis in C57BL/6 mouse bone marrow derived macrophages assessed as restoration of LPS-stimulated decrease in intracellular ATP level incubated for 1 hr followed by nigericin addition measured after 1 hr by cell titer-glo reagent based luminescence assay
[3] = molecular target: T1, NACHT, LRR and PYD domains-containing protein 3 (Homo sapiens, UniProt Q96P20); assay: Inhibition of nigericin-induced NLRP3 inflammasome activation in PMA-differentiated human THP1 cells assessed as reduction in LPS-stimulated IL-1beta secretion incubated for 1 hr prior to stimulation with nigericin for 1 hr by quanti-blue based SEAP reporter gene assay
[4] = molecular target: NACHT, LRR and PYD domains-containing protein 3 (Mus musculus) (UniProt Q8R4B8); assay: as §1
[5] = molecular target: NACHT, LRR and PYD domains-containing protein 3 (Mus musculus) (UniProt Q8R4B8); assay: as §1, with “LPS-stimulated processing of pro-IL-1beta to mature” for “LPS-stimulated”, “in supernatant at 100 uM” for “secretion”, “Western blot analysis” for “ELISA”
[6] = molecular target: NACHT, LRR and PYD domains-containing protein 3 (Mus musculus) (UniProt Q8R4B8); assay: as §1, with “LPS-stimulated processing of pro-IL-1beta to mature” for “LPS-stimulated”, “in cell lysate at 100 uM” for “secretion”, “Western blot analysis” for “ELISA”
[7] = molecular target: NACHT, LRR and PYD domains-containing protein 3 (Mus musculus) (UniProt Q8R4B8); assay: as §1, with “LPS-stimulated processing of pro-IL-1beta to mature” for “LPS-stimulated”, “in supernatant at 6.8 mM” for “secretion”, “Western blot analysis” for “ELISA”
[8] = molecular target: NACHT, LRR and PYD domains-containing protein 3 (Mus musculus) (UniProt Q8R4B8); assay: as §1, with “LPS-stimulated processing of pro-IL-1beta to mature” for “LPS-stimulated”, “in cell lysate at 6.8 mM” for “secretion”, “Western blot analysis” for “ELISA”
[9] = molecular target: T1, NACHT, LRR and PYD domains-containing protein 3; assay: (§2) Inhibition of nigericin-induced NLRP3 inflammasome activation in PMA-differentiated human THP1 cells assessed as reduction in LPS-stimulated processing of pro-IL-1beta to mature IL-1beta in supernatant at 3.4 mM incubated for 1 hr followed by nigericin addition measured after 1 hr by Western blot analysis
[10] = molecular target: T1, NACHT, LRR and PYD domains-containing protein 3; assay: as §2, with “cell lysate” for “supernatant”
[11] = molecular target: T1, NACHT, LRR and PYD domains-containing protein 3; assay: Inhibition of nigericin-induced NLRP3 inflammasome activation in PMA-differentiated human THP1 cells assessed as reduction in LPS-stimulated IL-1beta secretion at 60 mM incubated for 1 hr prior to stimulation with nigericin for 1 hr by ELISA

Sequence of NACHT, LRR and PYD domains-containing protein 3 (Mus musculus, UniProt Q8R4B8) (Q8R4B8 whole entry, the tested form may be a part): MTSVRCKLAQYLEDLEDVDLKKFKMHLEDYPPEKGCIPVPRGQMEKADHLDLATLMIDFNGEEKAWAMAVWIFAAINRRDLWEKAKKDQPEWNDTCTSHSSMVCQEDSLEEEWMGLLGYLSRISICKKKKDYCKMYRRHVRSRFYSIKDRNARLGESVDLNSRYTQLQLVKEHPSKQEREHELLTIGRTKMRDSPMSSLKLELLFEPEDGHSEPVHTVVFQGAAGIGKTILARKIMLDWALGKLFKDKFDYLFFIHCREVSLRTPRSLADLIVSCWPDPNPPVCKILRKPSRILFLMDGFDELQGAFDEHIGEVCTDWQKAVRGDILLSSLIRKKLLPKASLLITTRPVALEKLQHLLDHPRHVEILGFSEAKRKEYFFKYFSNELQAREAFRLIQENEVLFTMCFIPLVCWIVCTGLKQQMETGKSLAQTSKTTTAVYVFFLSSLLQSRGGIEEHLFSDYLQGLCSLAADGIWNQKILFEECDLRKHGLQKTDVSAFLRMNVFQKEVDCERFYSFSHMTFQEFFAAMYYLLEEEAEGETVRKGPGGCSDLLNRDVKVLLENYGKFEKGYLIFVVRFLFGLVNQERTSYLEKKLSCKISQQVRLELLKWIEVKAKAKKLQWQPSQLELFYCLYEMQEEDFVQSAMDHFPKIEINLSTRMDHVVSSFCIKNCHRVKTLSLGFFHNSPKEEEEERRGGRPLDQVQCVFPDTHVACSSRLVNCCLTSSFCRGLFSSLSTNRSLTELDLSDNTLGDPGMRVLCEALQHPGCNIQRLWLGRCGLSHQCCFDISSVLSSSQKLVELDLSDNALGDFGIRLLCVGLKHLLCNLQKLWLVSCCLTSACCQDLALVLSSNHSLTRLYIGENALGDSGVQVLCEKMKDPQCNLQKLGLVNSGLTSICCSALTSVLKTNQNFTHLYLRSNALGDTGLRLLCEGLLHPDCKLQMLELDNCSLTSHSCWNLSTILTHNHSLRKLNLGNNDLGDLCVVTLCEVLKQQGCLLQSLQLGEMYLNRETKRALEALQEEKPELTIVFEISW
Sequence of NACHT, LRR and PYD domains-containing protein 3 (Mus musculus) (Q8R4B8 whole entry, the tested form may be a part): as above
T1 sequence (Q96P20 whole entry, the tested form may be a part): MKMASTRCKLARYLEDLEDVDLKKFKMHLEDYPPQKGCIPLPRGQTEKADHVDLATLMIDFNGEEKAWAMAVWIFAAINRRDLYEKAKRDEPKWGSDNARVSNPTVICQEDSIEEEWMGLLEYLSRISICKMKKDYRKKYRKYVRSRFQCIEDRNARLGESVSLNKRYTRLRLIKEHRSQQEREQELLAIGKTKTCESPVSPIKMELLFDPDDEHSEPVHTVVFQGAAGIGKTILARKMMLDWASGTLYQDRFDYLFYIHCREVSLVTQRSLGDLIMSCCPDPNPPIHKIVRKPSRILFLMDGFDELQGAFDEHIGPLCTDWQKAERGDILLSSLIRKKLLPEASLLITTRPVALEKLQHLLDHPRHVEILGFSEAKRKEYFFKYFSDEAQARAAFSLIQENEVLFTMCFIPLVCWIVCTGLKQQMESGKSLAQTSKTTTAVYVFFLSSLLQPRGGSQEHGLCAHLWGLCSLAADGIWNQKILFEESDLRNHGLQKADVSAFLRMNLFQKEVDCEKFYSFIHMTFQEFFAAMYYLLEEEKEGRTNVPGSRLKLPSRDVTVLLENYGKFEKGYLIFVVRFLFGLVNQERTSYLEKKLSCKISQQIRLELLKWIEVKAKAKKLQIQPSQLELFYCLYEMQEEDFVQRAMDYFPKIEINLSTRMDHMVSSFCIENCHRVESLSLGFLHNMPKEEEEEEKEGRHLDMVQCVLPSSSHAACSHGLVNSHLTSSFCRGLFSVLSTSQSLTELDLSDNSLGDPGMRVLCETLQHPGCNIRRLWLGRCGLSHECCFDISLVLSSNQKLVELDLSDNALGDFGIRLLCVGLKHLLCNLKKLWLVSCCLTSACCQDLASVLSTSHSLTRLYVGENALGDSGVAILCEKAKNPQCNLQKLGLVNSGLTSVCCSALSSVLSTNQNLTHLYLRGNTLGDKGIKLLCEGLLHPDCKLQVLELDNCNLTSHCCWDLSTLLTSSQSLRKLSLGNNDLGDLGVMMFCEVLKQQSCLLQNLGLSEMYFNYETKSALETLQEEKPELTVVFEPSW

| SMILES | pIC50 [1] | inhibition [2] | pIC50 [3] | inhibition [4] | further results |
| --- | --- | --- | --- | --- | --- |
| CC(=O)OC[C@@H]1C=CC(=O)CO1 | 5.24 | Dose-dependent effect | 5.37 |  |  |
| O=C1C=C[C@@H](CO)OC1 | 4.80 | Dose-dependent effect |  | Dose-dependent effect | inhibition [5]: Active; inhibition [6]: Active |
| O=C1CO[C@H](CO)[C@@H](O)C1 | 2.80 | Dose-dependent effect | 2.64 | Dose-dependent effect | inhibition [7]: Active; inhibition [8]: Active; inhibition [9]: Active; inhibition [10]: Active |
| O=C1CO[C@H](CO)[C@@H](O)[C@@H]1O | 1.54 |  |  | Dose-dependent effect | inhibition [11]: inactive |
| CC(=O)OC[C@@H]1C=C(F)C(=O)CO1 | 5.49 | Dose-dependent effect | 5.43 |  |  |
| CCCCCCCC(=O)OC[C@@H]1C=CC(=O)CO1 | 5.08 | Dose-dependent effect | 5.29 |  |  |
| O=C1C=C[C@H]2CO[C@@H]1O2 | 5.92 |  | 5.18 |  |  |

More lines, main results first:

| pIC50 [1] | inhibition [2] | pIC50 [3] | inhibition [4] | SMILES | further results |
| --- | --- | --- | --- | --- | --- |
| 6.00 | Dose-dependent effect | 5.43 |  | CC(=O)OC1=C(F)C(OC(C)=O)[C@@H]2CO[C@H]1O2 (stereo partly specified) |  |
| 6.10 | Dose-dependent effect | 5.32 |  | O=C1C(F)=C[C@@H]2CO[C@H]1O2 (single isomer, unassigned) |  |
| 5.44 | Dose-dependent effect | 5.44 |  | CCCC(=O)OC[C@@H]1C=CC(=O)CO1 |  |

Reference: ChEMBL document CHEMBL4118290, “Synthesis of 1,5-Anhydro-d-fructose derivatives and evaluation of their inflammasome inhibitors” (Bioorg Med Chem, 2018)
